From ChEMBL document CHEMBL1131998, “Synthesis and biological evaluation of 1,1-difluoro-2-(tetrahydro-3-furanyl)ethylphosphonic acids possessing a N9-purinylmethyl functional group at the ring. a new class of inhibitors for purine nucleoside phosphorylases” (Bioorg Med Chem Lett, 1999)

Columns and labels:
[1] = molecular target: T1, Purine nucleoside phosphorylase (Homo sapiens, UniProt P00491); test: (§1) Compound was evaluated for inhibition of PNP-catalyzed inosine phosphorylation in human erythrocyte; assay type: functional
T1 sequence (P00491 whole entry): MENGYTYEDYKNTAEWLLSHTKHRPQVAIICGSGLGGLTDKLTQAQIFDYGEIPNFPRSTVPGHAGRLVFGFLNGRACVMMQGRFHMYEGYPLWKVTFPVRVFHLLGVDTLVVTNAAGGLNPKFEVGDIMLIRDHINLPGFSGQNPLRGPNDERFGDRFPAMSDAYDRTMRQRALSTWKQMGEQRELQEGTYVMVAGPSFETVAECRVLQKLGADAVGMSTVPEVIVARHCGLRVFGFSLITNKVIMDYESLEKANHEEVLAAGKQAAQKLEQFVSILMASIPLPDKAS

[2] = molecular target: T1, Purine nucleoside phosphorylase; test: as §1

Compound	IC50 [1] [nM]	Ki [2] [nM]
Nc1nc2c(ncn2CCCCC(F)(F)P(=O)(O)O)c(=O)[nH]1	380	53
O=c1[nH]cnc2c1ncn2CC[C@@H]1C[C@H]1C(F)(F)P(=O)(O)O	340	8.8
O=P(O)(O)C(F)(F)C[C@H]1COC[C@H]1Cn1cnc2c(O)ncnc21	88	15.2
O=P(O)(O)C(F)(F)C[C@H]1COC[C@@H]1Cn1cnc2c(O)ncnc21	320	–
Nc1nc2c(ncn2CC[C@@H]2C[C@H]2C(F)(F)P(=O)(O)O)c(=O)[nH]1 (racemic)	330	28.2
